{"source": "patent US11541059B2", "about": "“Heterocyclic compounds and uses thereof” (Infinity Pharmaceuticals, Inc., priority 2014, dated 2023)", "key": {"tumor growth": {"system": "tumor growth", "assay": "Tumor growth with Compound BB alone or co-administered with 5-FU (FIG. 35)", "type": "in vivo"}, "[1]": {"system": "CXCL12-induced pAKT in T-cells", "assay": "CXCL12-induced pAKT assay in T-cells", "type": "cell-based, human", "conditions": "FIG. 9", "excerpt": "There was a tight correlation between the EC50s observed in the CXCL12-induced pAKT assay and the T-cell migration assay."}, "[2]": {"system": "RANKL driven differentiation of osteoclasts from bone marrow macrophages", "assay": "Osteoclast differentiation assay (TRAP)", "type": "cell-based, mouse", "conditions": "TRAP positive cells, FIG. 17", "protocol": "Long bones from young C57B6 mice were harvested and bone marrow was extruded by gentle lavage of the bone marrow cavities with a 28 gage needle. The cells were screened, and red blood cells were removed using red blood cell lysis buffer (Sigma). Bone marrow cells were differentiated to macrophages using 20 ng/ml mouse MCSF (RnD systems) for 3 days (RPMI and 20% FCS). The cell were washed with PBS, and lifted with Accutase for 10 minutes.\nThe bone marrow macrophage cells were plated at 150,000 cells per well in a 96 well plate in a MEM 10% FCS. […] Then 25 ng/ml mouse MCSF with or without mouse RANKL (100 ng/ml, RnD systems) was added for 6 days. Media changes (including drugs) were done at day 3 and day 5. The cells were then fixed and stained with the tartrate resistant acid phosphatase (TRAP) assay kit from Sigma according to the manufactures instructions. TRAP positive cells (osteoclasts and cells undergoing an osteoclastic differentiation) in a transect of the triplicate wells (at 20× […]) were manually counted by going through the widest part of each well."}, "[3]": {"system": "bone marrow cells differentiating into MDSCs (VEGF, ARG1)", "assay": "Myeloid Derived Suppressor Cell differentiation assay", "type": "cell-based", "conditions": "FIG. 24A, 24B", "protocol": "A similar experiment was performed on bone marrow cells differentiating into MDSCs."}, "4T1 tumors": {"system": "4T1 tumors", "assay": "4T1 breast cancer model", "type": "in vivo, mouse", "protocol": "Plasma is collected for pharmokinetic (PK) analysis.\nBriefly, in this study, treatment was initiated when tumors reached approximately 100 mm^3. […] 1. […] Vehicle+anti-PD-L1 (200 ug); 4.\nLuciferin measurements were taken twice a week."}, "[4]": {"system": "CD206 population in LLC tumors", "assay": "CD206 levels of macrophages in LLC tumors (FACS)", "type": "in vivo, mouse", "conditions": "alone and in combination with cyclophosphamide", "protocol": "Tumors were harvested on the last day or if the vehicles reached approx. 3000 mm^3. Tumors were cut in half. One half was cut in half again with ½ fixed in 10% NBF, and the other was frozen in OCT for frozen sections. The remaining half was processed to single cell suspension and evaluated by FACS using two panels. Antibodies used for staining for FACS were as follows. Staining with CD4 and CD8a: CD45-AF700 (BDB560510) at 1.25 ug/ml; […] Staining with CD11b and GR-1: CD45-AF700 (BDB560510) at 1.25 ug/ml; […] CD45-AF700 (BDB560510) at 1.25 ug/ml; […] Staining with MDSC panel: CD45-AF700 (BDB560510) at 1.25 ug/ml; […] Ly6C APC at 2.5 ug/ml; and Ly6G FITC at 2.5 ug/ml."}, "[5]": {"system": "tumor cell inhibition of T cell proliferation", "assay": "Ex vivo T cell proliferation (CFSE) with CT26 tumor cells", "type": "in vivo, mouse", "conditions": "tumors from treated mice", "protocol": "CT26 was an N-nitroso-N-methylurethane-(NNMU) induced, undifferentiated colon carcinoma cell line. It was cloned to generate the cell line designated CT26.WT (ATCC CRL-2638).\nThe duration of the study was 1 week under treatment. 5-6 week old female, Balb/c mice (Jackson Labs) implanted subcutaneously with 5×10^5 CT26 cells in 100 μl PBS. CT26 cells were cultured in RPMI supplemented with 10% FBS. Dosing commenced when tumors reached an average volume of 500-600 mm^3.\nFor group 3 (αPD-L1), the mice were dosed once, IP, 200 ug (200 uL from 1 mg/ml stock).\nMice were monitored daily for adverse clinical effects. Body weights and tumor luminescent were measured two times per week. At the end of the study, tumors were harvested and cut into 3 parts; one piece for CTL killing assay, one piece for CSFE proliferation assay and one piece (split into two) for OCT/FFPE.\nSpleens from 3 vehicle treated tumor bearing mice were physically dissociated in T cell media and passed through a 70 micron filter. After red cell lysis, the cells were pooled, brought up in PBS and stained with CFSE (invitrogen). After washing, these cells were brought up in 20 ml T cell media. Half the cells received Dynal mouse activator beads (CD3/CD28 crosslinking at a 1:1 concentration). CD3/CD28 beads induce proliferation in splenocytes from tumor bearing mouse (data not shown). […]"}, "[6]": {"system": "pAKT S473 in T cells and monocytes", "assay": "Ex vivo whole blood CXCL12 stimulation of phospho-AKT, LLC-bearing mice", "type": "in vivo, mouse", "conditions": "12 days QD PO, 2 h post dose", "protocol": "C57 BL/6 Albino mice were implanted with 1×10^6 cells in a SC injection in the hind flank. The cell implant material was generated from brei that was passaged from mouse to mouse. Treatment started when tumors were between 160-180 mm^3. Mice were dosed for 12 days, QD, PO with vehicle, 15, 7.5 or 3 mg/kg. On day 12 mice were dosed and terminal blood was collected 2 h post dose by cardiac stick collection. Blood was placed in EDTA K2 collection tube and stored at room temp for PD analysis.\nBlood from each animal was aliquotted into 2 plates and warmed to 37° C. degrees. PBS was added to one plate as an unstimulated control. Murine CXCL12/SDF-1 was added to the second plate to a final concentration of 800 ng/mL and plate was returned to the 37° C. degree block. After 2 minutes of incubation, blood was lysed and fixed using paraformaldehyde. Samples were washed and frozen until flow cytometric analysis. T cells were gated using an antibody to CD3 and monocytes were gated as LY6G^− LY6C^high. Intracellular pAKT S473 was measured and percent positive was used for graphing."}}}
{"compound": "C[C@H](NC(=O)c1c(N)nn2cccnc12)c1cc2cccc(C#Cc3cnn(C)c3)c2c(=O)n1-c1ccccc1", "note": "[Compound BB]", "values": [{"measurement": "tumor growth", "setting": "tumor growth; Compound BB alone (FIG. 35)", "value": "reduction in tumor growth"}, {"measurement": "tumor growth", "setting": "tumor growth; co-administration of Compound BB and 5-FU (FIG. 35)", "value": "further reduction"}, {"measurement": "Inhibition of CXCL12-induced pAKT in T-cells", "setting": "[1]", "value": "inhibited CXCL12-induced pAKT in T-cells more strongly than a PI3K-δ inhibitor"}, {"measurement": "RANKL driven differentiation of osteoclasts from bone marrow macrophages", "setting": "[2]", "value": "prevents RANKL driven differentiation of osteoclasts"}, {"measurement": "VEGF and ARG1 in MDSC differentiation assay", "setting": "[3]", "value": "suppressed both VEGF (FIG. 24A) and ARG1 (FIG. 24B)"}, {"measurement": "Tumor growth, orthotopic 4T1 breast cancer model", "setting": "4T1 tumors; 7.5 mg/kg PO QD 3 weeks, FIG. 33A", "value": "reduced tumor growth"}, {"measurement": "Tumor growth, subcutaneous 4T1 breast cancer model", "setting": "4T1 tumors; 15 mg/kg PO QD 2 weeks, FIG. 36", "value": "demonstrated single agent activity"}, {"measurement": "Anti-tumor effect maintained after discontinuation of treatment", "setting": "4T1 tumors; subcutaneous 4T1, FIG. 34", "value": "at least 6 days"}, {"measurement": "CD206 population in LLC tumors", "setting": "[4]", "value": "decrease in the CD206 population"}, {"measurement": "Suppression of T cell proliferation by cells derived from CT26 tumors", "setting": "[5]", "value": "can release the suppression"}, {"measurement": "Ex vivo whole blood CXCL12 stimulation of phospho-AKT in T cells", "setting": "[6]; FIG. 58", "value": "inhibits the ex vivo whole blood stimulation of phosphor-AKT in T cells"}, {"measurement": "Ex vivo whole blood CXCL12 stimulation of phospho-AKT in monocytes", "setting": "[6]; FIG. 59", "value": "inhibits the ex vivo whole blood stimulation of phosphor-AKT in monocytes"}]}
